Literature values in patent publication US20130004545A1, “SLOW RELEASE PHARMACEUTICAL COMPOSITIONS OF ILOPERIDONE” (LUPIN LIMITED, priority 2009, published 2013).

How the values were obtained:
[1] = for t1/2: metabolite of iloperidone
[2] = system: plasma proteins; conditions: administered orally
[3] = molecular target: 5-HT2A receptors (Homo sapiens, UniProt P28223)
Sequence of 5-HT2A receptors (P28223 whole entry): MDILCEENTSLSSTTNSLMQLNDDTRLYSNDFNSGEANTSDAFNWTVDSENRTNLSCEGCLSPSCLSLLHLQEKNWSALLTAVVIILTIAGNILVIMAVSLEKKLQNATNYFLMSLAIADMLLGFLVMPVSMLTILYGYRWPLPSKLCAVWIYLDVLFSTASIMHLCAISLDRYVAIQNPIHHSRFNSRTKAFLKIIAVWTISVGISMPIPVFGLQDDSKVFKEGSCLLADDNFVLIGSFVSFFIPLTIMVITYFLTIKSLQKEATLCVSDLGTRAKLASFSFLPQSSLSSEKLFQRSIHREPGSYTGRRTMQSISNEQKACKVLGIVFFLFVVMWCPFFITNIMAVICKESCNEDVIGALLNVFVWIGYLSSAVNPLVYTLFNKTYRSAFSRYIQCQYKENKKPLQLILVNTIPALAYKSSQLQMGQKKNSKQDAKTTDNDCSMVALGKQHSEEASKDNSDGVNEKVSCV

In the case of COc1cc(C(C)O)ccc1OCCCN1CCC(c2noc3cc(F)ccc23)CC1 (stereo not drawn) [Example P88], the t1/2 [1] is listed as 25.6 h, the “Plasma level relative to Iloperidone” value ([1]; metabolite plasma level, reported) is listed as “approximately 1.5 times that of Iloperidone” and the tmax ([1]; metabolite, after oral administration of parent active ingredient) is listed as 6 h.

For COc1cc(C(C)=O)ccc1OCCCN1CCC(c2noc3cc(F)ccc23)CC1 [Iloperidone], the “binding to plasma proteins” value [2] is listed as “highly bound to plasma proteins”.

For COc1cc(C(=O)O)ccc1OCCCN1CCC(c2noc3cc(F)ccc23)CC1 [Example P95, 4-[3-[4-(6-fluoro-1,2,-benzisoxazol-3-yl)-1-piperidinyl]propoxy]-3-methoxy-benzoic acid], the t1/2 [1] is listed as 25.6 h and the receptor affinity [3] is listed as “affinity for only 5-HT2A receptors”.
